This note sets out measurements from patent publication US8685392B2 (priority 2009, dated 2014).

Molecules are shown by their SMILES.

Assay [1] deals with gliadin-degrading enzymes of strain WSA-8. As to the method: (§1) Saliva ion buffer contains 50 mM KCl, 1 mM K2HPO4, 1 mM CaCl2 and 0.1 mM MgCl2 (pH 6.5). Cells were preincubated with the inhibitors for 15 min at room temperature prior to the addition of substrate. Z-YPQ-pNA hydrolysis was followed at 405 nm. Initial velocities of the enzymatic reaction are plotted.
(§2) Inhibitory effects were monitored toward the capacity to hydrolyze Z-YPQ-pNA. The initial rate of substrate proteolysis (Vi) was determined during the first 30 minute incubation time interval.

For assay [2], the system named is gliadin-degrading enzymes of strain WSA-2B. As to the method:
as §1, §2

For `Cl.NCCc1ccc(S(=O)(=O)F)cc1` [AEBSF, 4-(2-Aminoethyl) benzenesulfonyl fluoride hydrochloride], the “inhibition of Z-YPQ-pNA hydrolysis (initial rate Vi) in WSA-8” value in assay [1] came out at 78%. In addition, the “inhibition of Z-YPQ-pNA hydrolysis (initial rate Vi) in WSA-2B” value in assay [2] stood at 97%.
